Here are results for 16 molecules from EPA's ToxValDB 9.5.

For data set [1], the system named is Mus musculus.
In data set [2] the test system is Oryctolagus sp. The note with it: for LD50: acute; for LOAEL: Dutch-belted.
Data set [3] has as its system Rattus norvegicus. The note with it: for LD50 / LC50: acute.
Data set [4] relates to Rattus norvegicus. The note with it: oral.
Where [5] appears, read: short-term, duration: 13 days, oral, diet, B6C3F1.
Setting [6] is: subchronic, duration: 13 weeks, oral, diet, B6C3F1.
[7] abbreviates: reproduction developmental, duration: 13 days, oral, gavage, F, New Zealand.
Setting [8] is: subchronic, duration: 13 weeks, oral, diet, Fischer 344.
Setting [9] is: short-term, duration: 28 days, gavage, M, Sprague-Dawley, Deaths + Clinical Observation: Locomotor activity decrease, SalivationDiarrhea or loose stool Staining around nose and mouth + Functional ….
Where [10] appears, read: reproduction developmental, oral, gavage, Sprague-Dawley, generation: F1.
Setting [11] is: developmental, duration: 10 days, oral, gavage, Sprague-Dawley.
Where [12] appears, read: reproduction developmental, duration: 4 weeks, oral, gavage, Sprague-Dawley, generation: F0.
The mark [13] stands for this setting: reproduction developmental, duration: 4 weeks, oral, gavage, Sprague-Dawley, generation: F1.
The mark [14] stands for this setting: subchronic, duration: 30 days, oral, diet, Sprague-Dawley.
Setting [15] is: chronic, duration: 6 months, inhalation, Sprague-Dawley.
The mark [16] stands for this setting: short-term, duration: 14 days, oral, gavage, F, Fischer 344.
Setting [17] is: short-term, duration: 14 days, oral, gavage, M, Fischer 344.
Setting [18] is: subchronic, duration: 13 weeks, inhalation, F, Fischer 344.
Setting [19] is: subchronic, duration: 13 weeks, inhalation, Fischer 344.
The mark [20] stands for this setting: subchronic, duration: 13 weeks, oral, gavage, F, Fischer 344.
[21] abbreviates: subchronic, duration: 13 weeks, oral, gavage, Fischer 344.
Setting [22] is: subchronic, duration: 13 weeks, oral, gavage, Sprague-Dawley.

Several values for one entry are separate records, joined by “and”; a condition that tells them apart may be missing. Equal entries are not always repeated.

Usually LOAEL stands for the lowest dose or exposure tested at which an adverse effect was seen. What is called NOAEL is the highest dose or exposure tested at which no adverse effect was seen. With `Cc1cc(O)c(C(C)(C)C)cc1Sc1cc(C(C)(C)C)c(O)cc1C` [4,4'-Thiobis(6-tert-butyl-m-cresol)], the LOAEL in data set [1] (setting [5]) amounted to 500 ppm; in data set [1] (setting [6]), 98.5 mg/kg-day; in data set [3] (short-term, duration: 13 days, oral, diet, Fischer 344), 250 ppm; in data set [3] (setting [8]), 96 mg/kg-day. Also, the no-observed-adverse-effect level (NOAEL) in data set [1] (setting [5]) came out at 250 ppm; in data set [1] (setting [6]), 49.2 mg/kg-day; in data set [2] (setting [7]) it was 0.2 mg/kg-day; in data set [3] (short-term, duration: 15 days, oral, diet, Fischer 344) it was 2500 ppm; in data set [3] (setting [8]), 48 mg/kg-day; in data set [4] (setting [9]), 60 mg/kg-day. The LD50 is > 5010 mg/kg in data set [2] (dermal, New Zealand); > 5010 mg/kg in data set [2] (dermal, occlusive, New Zealand); 4150 mg/kg in data set [3] (oral, diet, Sprague-Dawley); 4150 mg/kg in data set [3] (oral, gavage, Sprague-Dawley). The NOEL was < 60 mg/kg-day in data set [4] (setting [9]); < 15 mg/kg-day in data set [4] (subchronic, duration: 13 weeks, diet, F, Fischer 344, Clinical Observation: Diarrhea + Body Weight Changes: decrease + Food Consumption: decrease + Hematology: Nucleated erythrocyte increase, …); < 24 mg/kg-day in data set [4] (subchronic, duration: 13 weeks, diet, M/F, Fischer 344, Clinical Observation: Diarrhea + Body Weight Changes: decrease + Food Consumption: decrease + Hematology: Nucleated erythrocyte increase, …).
With `CC(C)(N)CO` [2-Amino-2-methylpropan-1-ol], the LD50 in data set [1] (acute, oral, gavage) is 3350 mg/kg; in data set [2] (dermal, occlusive), > 2000 mg/kg. Moreover, the lowest observed adverse effect level (LOAEL) in data set [3] (subchronic, duration: 3 months, oral, diet, Sprague-Dawley) was found to be 240 mg/kg-day.
Turning to `C=CCOC(=O)OCCOCCOC(=O)OCC=C` [Diallyl diglycol carbonate], the LD50 in data set [1] (acute, injection, Intraperitoneal, albino) was determined as 269 mg/kg; in data set [3] (oral, gavage, Crl), 349 mg/kg; in data set [3] (oral, gavage, Fischer 344), 515 mg/kg. In data set [2] (reproduction developmental, duration: 6 days, dermal, New Zealand), this molecule had a no observed adverse effect level (NOAEL) of 0.1 mg/kg-day.
Regarding `CCCCC(CC)CO[N+](=O)[O-]` (centres undefined) [2-Ethylhexyl nitrate], the NOAEL is > 500 mg/kg-day in data set [2] (short-term, duration: 15 days, dermal, semiocclusive, Albino); 20 mg/kg-day in data set [3] (reproduction developmental, oral, gavage, Sprague-Dawley, generation: F0); 100 mg/kg-day in data set [3] (setting [10]); 301 mg/m3 in data set [3] (short-term, duration: 14 days, inhalation, Sprague-Dawley); 20 mg/kg-day in data set [3] (short-term, duration: 28 days, oral, gavage, Sprague-Dawley).
With `C1=CC2C3C=CC(C3)C2C1` (centres undefined) [Dicyclopentadiene], the NOAEL in data set [2] (reproduction developmental, duration: 14 days, oral, gavage, F, New Zealand) was determined as 25 mg/kg-day; in data set [3] (developmental, duration: 10 days, oral, diet, Sprague-Dawley) it was 750 ppm; in data set [3] (setting [11]), 50 mg/kg-day; in data set [3] (reproduction developmental, duration: 10 days, oral, diet, F, Sprague-Dawley), 750 ppm; in data set [3] (reproduction developmental, oral, diet, Sprague-Dawley, generation: F0), 750 ppm; in data set [3] (reproduction developmental, oral, diet, Sprague-Dawley, generation: F1) it was 750 ppm. In addition, the NOAEL worked out at 750 ppm in data set [3] (reproduction developmental, oral, diet, Sprague-Dawley, generation: F2); 20 mg/kg-day in data set [3] (reproduction developmental, oral, gavage, F, Sprague-Dawley); 100 mg/kg-day in data set [3] (reproduction developmental, oral, gavage, M, Sprague-Dawley); 20 mg/kg-day in data set [3] (setting [10]). Also, the NOEL in data set [4] (short-term, duration: 28 days, gavage, M/F, Fischer 344, Deaths + Clinical Observation: Salivation + Body Weight Changes: Weight gain decrease + Food Consumption: decrease + Blood Chemistry: GPT …) was determined as 8 mg/kg-day.
`CN1C(=O)c2ccc(Oc3ccc(C(C)(C)c4ccc(Oc5ccc6c(c5)C(=O)N(C)C6=O)cc4)cc3)cc2C1=O`: the NOAEC in data set [2] (developmental, duration: 12 days, oral, gavage, New Zealand) was > 1000 mg/kg-day; in data set [2] (setting [7]), > 1000 mg/kg-day; in data set [2] (reproduction developmental, duration: 13 days, oral, gavage, New Zealand) it was > 1000 mg/kg-day. Moreover, the NOAEL in data set [2] (reproduction developmental, duration: 12 days, oral, gavage, F, New Zealand) is > 1000 mg/kg-day; in data set [3] (setting [11]), > 1000 mg/kg-day; in data set [3] (setting [12]), > 1000 mg/kg-day; in data set [3] (setting [13]) it was > 1000 mg/kg-day; in data set [3] (reproduction developmental, duration: 10 days, oral, gavage, Crl:CD(SD) BR) it was > 1000 mg/kg-day; in data set [3] (setting [14]) it was ≥ 2750 mg/kg-day and ≤ 3160 mg/kg-day. In addition, the “LOAEL (% diet)” value in data set [3] (setting [14]) is > 4. In data set [3] (setting [14]), the “NOAEL (% diet)” value was 4.
On to `CCN(CC)C(=S)SSC(=S)N(CC)CC` [Tetraethylthiuram disulfide], for which the no observed adverse effect level (NOAEL) in data set [1] (reproduction developmental, duration: 6 days, oral, gavage, CD1, generation: F1) was > 4900 mg/kg-day; in data set [3] (reproduction developmental, duration: 19 days, oral, gavage, F, Sprague-Dawley) it was > 250 mg/kg-day. Also, the LD50 was > 2000 mg/kg in data set [2] (dermal, occlusive, New Zealand); 4570 mg/kg and > 5200 mg/kg and 7070 mg/kg in data set [3] (oral, gavage, Sprague-Dawley).
On to `CCCCCCCCC=O` [Nonanal], for which the LD50 in data set [2] (dermal, albino) was > 5000 mg/kg; in data set [3] (oral, gavage, Wistar), > 5000 mg/kg.
For `Cc1ccccn1` [2-Methylpyridine], the LD50 in data set [2] (dermal) is ≥ 252 mg/kg and ≤ 500 mg/kg; in data set [2] (dermal, occlusive, New Zealand), ≥ 200 mg/kg and ≤ 316 mg/kg; in data set [3] (oral, gavage, Sprague-Dawley), 810 mg/kg and > 950 mg/kg. For the same molecule, the LC50 in data set [3] (inhalation) was ≥ 7620 mg/m3 and ≤ 15200 mg/m3; in data set [3] (inhalation, Sprague-Dawley) it was < 13200 mg/m3. Further, the lowest-observed-adverse-effect level (LOAEL) in data set [3] (setting [15]) is > 381 mg/m3. Further, in data set [3] (setting [15]), the NOAEL was ≥ 381 mg/m3.
As for `CCc1ccc(C)cc1` [4-Ethyltoluene], the LD50 is > 5000 mg/kg in data set [2] (dermal, occlusive, New Zealand) and 4850 mg/kg in data set [3] (oral, gavage, Sprague-Dawley). Besides, the LOAEL in data set [2] (developmental, oral, gavage) was > 200 mg/kg-day; in data set [2] (reproduction developmental, oral, gavage, F), 250 mg/kg-day; in data set [3] (setting [16]), 400 mg/kg-day; in data set [3] (setting [17]), 400 mg/kg-day; in data set [3] (setting [18]), 4810 mg/m3; in data set [3] (setting [19]), 4810 mg/m3. The LOAEL in data set [3] (setting [20]) and in data set [3] (setting [21]) was 300 mg/kg-day in each case. For the same molecule, the LC50 in data set [3] (inhalation, Sprague-Dawley) was > 19200 mg/m3. In addition, the NOAEL in data set [3] (developmental, duration: 20 days, oral, gavage) was > 200 mg/kg-day; in data set [3] (setting [16]) it was 200 mg/kg-day; in data set [3] (setting [17]), 200 mg/kg-day; in data set [3] (setting [18]), 1500 mg/m3; in data set [3] (setting [19]), 1500 mg/m3; in data set [3] (setting [20]), 100 mg/kg-day. Moreover, in data set [3] (setting [21]), the no-observed-adverse-effect level (NOAEL) is 100 mg/kg-day.
`CCOC(=O)CCl` [Ethyl chloroacetate]: the LD50 in data set [1] (acute, injection, subcutaneous) is 250 mg/kg; in data set [1] (acute, oral), 350 mg/kg; in data set [2] (dermal), 335 mg/kg and 230 mg/kg; in data set [2] (dermal, occlusive, New Zealand) it was 255 mg/kg; in data set [3] (dermal) it was 161 mg/kg.
Turning to `Cc1ccc(OP(=O)(Oc2ccc(C)cc2C)Oc2ccc(C)cc2C)c(C)c1` [Trixylyl phosphate], the LD50 in data set [2] (dermal, New Zealand) was > 2000 mg/kg; in data set [3] (oral, gavage, Sprague-Dawley) it was > 20000 mg/kg.
For the molecule `CCCCCN(CCCCC)C(=S)[S][Sb]([S]C(=S)N(CCCCC)CCCCC)[S]C(=S)N(CCCCC)CCCCC` [Antimony diamyldithiocarbamate], the LD50 in data set [2] (dermal, occlusive) is 16000 mg/kg; in data set [3] (oral, gavage) it was 16400 mg/kg.
Regarding `CC(C)CCCCCCCOP(OCCCCCCCC(C)C)OCCCCCCCC(C)C` [Isodecyl phosphite], the LD50 in data set [2] (dermal, New Zealand) was > 5000 mg/kg; in data set [3] (oral, gavage, Sherman Wistar), > 5000 mg/kg. The LC50 in data set [3] (Inhalation, Sherman Wistar) was > 12.6 µg/mL. Also, the NOAEL is ≥ 1000 mg/kg-day in data set [3] (reproduction developmental, duration: 8 weeks, oral, gavage, Sprague-Dawley, generation: F0) and ≥ 1000 mg/kg-day in data set [3] (reproduction developmental, duration: 8 weeks, oral, gavage, Sprague-Dawley, generation: F1).
Take `O=C(Cl)CCl` [Chloroacetyl chloride]: the LC50 amounted to 11100 mg/m3 in data set [1] (acute, inhalation) and 3050 mg/m3 in data set [3] (inhalation, Fischer 344). Also, the LD50 in data set [2] (dermal, semiocclusive, New Zealand) is ≥ 316 mg/kg and ≤ 501 mg/kg; in data set [3] (oral), ≥ 1260 mg/kg and ≤ 2500 mg/kg; in data set [3] (oral, Sprague-Dawley), 207 mg/kg. Also, the LOAEL in data set [3] (short-term, duration: 4 weeks, inhalation, Fischer 344) came to 2.31 mg/m3.
Regarding `CN1C(=O)c2ccc([N+](=O)[O-])cc2C1=O` [N-Methyl-4-nitrophthalimide], the LD50 in data set [2] (dermal, New Zealand) is > 2000 mg/kg; in data set [3] (inhalation, whole body, Sprague-Dawley), > 36 mg/L; in data set [3] (oral, gavage, Sprague-Dawley), 2800 mg/kg. In addition, the no observed adverse effect level (NOAEL) in data set [2] (developmental, duration: 13 days, oral, gavage, New Zealand) was 50 mg/kg-day; in data set [2] (setting [7]), 50 mg/kg-day; in data set [3] (developmental, duration: 9 days, oral, gavage, Sprague-Dawley), 50 mg/kg-day; in data set [3] (reproduction developmental, duration: 4 weeks, oral, gavage, Sprague-Dawley), > 25 mg/kg-day; in data set [3] (setting [12]) it was 2.5 mg/kg-day; in data set [3] (setting [13]), > 25 mg/kg-day. Also, the NOAEL turned out to be 10 mg/kg-day in data set [3] (reproduction developmental, duration: 9 days, oral, gavage, F, Sprague-Dawley) and 1 mg/kg-day in data set [3] (setting [22]). In data set [3] (setting [22]), this molecule gave an LOAEL of 10 mg/kg-day.
